Test results taken from US20050107386A1, “Methods of treating diseases and disorders by targeting multiple kinases” (priority 2003, published 2005).

Assays:
Assay type in all cases: biochemical
Details in all cases: 3 μM; percent of control kinase activity
Lyn(h) = Lyn(h) (Homo sapiens, UniProt P07948); experiment: Lyn(h) kinase assay
CDK5/p35(h) = CDK5/p35(h) (Homo sapiens, UniProt Q00535); experiment: CDK5/p35(h) kinase assay
Description: (§1) Six compounds (presumptive single agents) were tested against a panel of 50 kinases. The results are presented in Table 2; numbers for each kinase indicate the percent of control kinase activity in the presence of a 3μM concentration of the indicated agent.
(§2) Agents that target two or more different kinases are useful in the methods of the invention as described elsewhere herein. Such compounds may be identified, and their effect on certain kinases may be identified, using the assays briefly described below in Examples 4-83. Each of these assays was carried out as described in Davies et al., Biochem. J., 351:95-105 (2000). All assays were carried out at 10 μM ATP unless otherwise noted.
(§3) In a final reaction volume of 25 μl, CDK5/p35 (h) (5-10 mU) is incubated with 8 mM MOPS pH 7.0, 0.2 mM EDTA, 0.1 mg/ml histone H1, 10 mM MgAcetate and [γ-^33P-ATP] (specific activity approx. 500 cpm/pmol, concentration as required). The reaction is initiated by the addition of Mg^2+ [γ-^33P-ATP]. After incubation for 40 minutes at room temperature, the reaction is stopped by the addition of 5 μl of a 3% phosphoric acid solution. 10 μl of the reaction is then spotted onto a P30 filtermat and washed three times for 5 minutes in 75 mM phosphoric acid and once in methanol prior to drying and scintillation counting.

CDK6/cyclinD3(h) = CDK6/cyclinD3(h) (Homo sapiens, UniProt Q00534); experiment: CDK6/cyclinD3(h) kinase assay
Sequence of CDK6/cyclinD3(h) (Q00534 whole entry): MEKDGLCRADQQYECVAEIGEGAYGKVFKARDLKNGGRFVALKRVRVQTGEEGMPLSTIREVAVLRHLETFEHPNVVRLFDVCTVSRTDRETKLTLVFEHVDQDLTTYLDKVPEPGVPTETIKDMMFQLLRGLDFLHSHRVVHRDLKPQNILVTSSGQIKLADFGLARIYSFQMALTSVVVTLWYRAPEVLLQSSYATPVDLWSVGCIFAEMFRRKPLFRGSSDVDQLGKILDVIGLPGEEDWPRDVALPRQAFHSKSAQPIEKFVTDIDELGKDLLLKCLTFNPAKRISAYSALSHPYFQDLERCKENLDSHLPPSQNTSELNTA
Sequence of CDK6/cyclinD3(h) (P30281 whole entry partner): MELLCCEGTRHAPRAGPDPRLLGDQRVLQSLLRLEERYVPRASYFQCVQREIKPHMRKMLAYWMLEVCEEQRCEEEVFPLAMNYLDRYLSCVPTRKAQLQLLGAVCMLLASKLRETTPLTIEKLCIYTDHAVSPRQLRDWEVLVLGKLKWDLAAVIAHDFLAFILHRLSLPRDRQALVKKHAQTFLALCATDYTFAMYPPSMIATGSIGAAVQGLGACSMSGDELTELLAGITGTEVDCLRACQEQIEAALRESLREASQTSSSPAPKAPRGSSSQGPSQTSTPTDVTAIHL
Description: as §1, §2
as §3, with “CDK6/cyclinD3” for “CDK5/p35”, “[γ-33p-ATP]” for “[γ-^33P-ATP]”, “[γ-33P-ATP].” for “[γ-^33P-ATP].”

CHK2(h) = CHK2(h) (Homo sapiens, UniProt O96017); experiment: CHK2(h) kinase assay
Sequence of CHK2(h) (O96017 whole entry): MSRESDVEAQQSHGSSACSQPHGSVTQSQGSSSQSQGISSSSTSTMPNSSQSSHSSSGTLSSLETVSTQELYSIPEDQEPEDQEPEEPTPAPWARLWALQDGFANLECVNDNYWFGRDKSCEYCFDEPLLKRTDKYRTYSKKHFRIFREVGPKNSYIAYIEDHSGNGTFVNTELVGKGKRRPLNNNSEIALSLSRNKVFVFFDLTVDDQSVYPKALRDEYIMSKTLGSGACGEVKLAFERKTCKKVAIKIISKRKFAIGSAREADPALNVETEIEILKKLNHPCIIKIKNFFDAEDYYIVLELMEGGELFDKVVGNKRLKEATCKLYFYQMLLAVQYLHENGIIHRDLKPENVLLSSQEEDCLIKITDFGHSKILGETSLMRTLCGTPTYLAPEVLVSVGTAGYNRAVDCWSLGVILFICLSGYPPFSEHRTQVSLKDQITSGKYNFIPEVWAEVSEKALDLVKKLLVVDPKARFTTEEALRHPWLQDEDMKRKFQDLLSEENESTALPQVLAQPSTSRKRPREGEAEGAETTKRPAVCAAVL
Description: as §1, §2
as §3, with “CHK2” for “CDK5/p35”, “7.0,0.2” for “7.0, 0.2”, “200 μM […] (SEQ ID NO:5),” for “0.1 mg/ml histone H1,”

Fyn(h) = Fyn(h) (Homo sapiens, UniProt P06241); experiment: Fyn(h) kinase assay
Sequence of Fyn(h) (P06241 whole entry): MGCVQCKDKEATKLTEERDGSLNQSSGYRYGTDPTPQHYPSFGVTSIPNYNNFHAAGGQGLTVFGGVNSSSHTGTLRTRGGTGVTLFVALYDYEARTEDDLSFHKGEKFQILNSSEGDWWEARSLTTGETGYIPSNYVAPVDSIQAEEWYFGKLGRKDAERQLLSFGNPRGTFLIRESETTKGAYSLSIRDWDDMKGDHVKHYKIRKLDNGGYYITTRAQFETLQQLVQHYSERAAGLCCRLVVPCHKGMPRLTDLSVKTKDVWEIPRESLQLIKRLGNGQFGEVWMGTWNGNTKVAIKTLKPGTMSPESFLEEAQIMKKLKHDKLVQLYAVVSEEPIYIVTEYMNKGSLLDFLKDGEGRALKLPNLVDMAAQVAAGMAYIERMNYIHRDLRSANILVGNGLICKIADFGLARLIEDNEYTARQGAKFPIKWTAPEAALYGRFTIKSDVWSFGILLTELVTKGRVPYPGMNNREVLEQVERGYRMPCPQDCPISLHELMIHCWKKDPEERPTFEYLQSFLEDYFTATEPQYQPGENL
Description: as §1, §2
as §3, with “Fyn” for “CDK5/p35”, “50” for “8”, “Tris” for “MOPS”, “7.5, 0.1” for “7.0, 0.2”, “EGTA,” for “EDTA,”, “mM NaVanadate, 250 μM […] (Cdc2 peptide; SEQ ID NO:7),” for “mg/ml histone H1,”

CaMKIV(h) = CaMKIV(h) (Homo sapiens, UniProt Q16566); experiment: CaMKIV(h) kinase assay
Description: as §1, §2
as §3, with “CaMKIV” for “CDK5/p35”, “40” for “8”, “Hepes” for “MOPS”, “7.4, 5” for “7.0, 0.2”, “CaCl2, 30 μg/ml calmodulin, 30 μM […] (SEQ ID NO:11),” for “EDTA, 0.1 mg/ml histone H1,”

MAPKAP-K2(h) = MAPKAP-K2(h) (Homo sapiens, UniProt P49137); experiment: MAPKAP-K2(h) kinase assay
Sequence of MAPKAP-K2(h) (P49137 whole entry): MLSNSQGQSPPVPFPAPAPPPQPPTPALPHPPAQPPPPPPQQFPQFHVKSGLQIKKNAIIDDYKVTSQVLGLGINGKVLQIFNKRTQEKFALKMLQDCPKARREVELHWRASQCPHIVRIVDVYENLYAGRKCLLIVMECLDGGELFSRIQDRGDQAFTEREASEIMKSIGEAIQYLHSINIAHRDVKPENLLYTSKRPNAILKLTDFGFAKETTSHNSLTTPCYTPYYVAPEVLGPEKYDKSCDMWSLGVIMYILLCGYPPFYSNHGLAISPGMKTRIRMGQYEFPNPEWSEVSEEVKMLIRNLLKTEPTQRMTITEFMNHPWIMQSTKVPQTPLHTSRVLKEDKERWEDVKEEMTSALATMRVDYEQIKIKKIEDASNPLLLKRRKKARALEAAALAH
Description: as §1, §2
as §3, with “MAPKAP-K2” for “CDK5/p35”, “50” for “8”, “Na-β-glycerophosphate” for “MOPS”, “7.5, 0.1” for “7.0, 0.2”, “EGTA, 30 μM […] (SEQ ID NO:11),” for “EDTA, 0.1 mg/ml histone H1,”, “(Specific” for “(specific”

Syk(h) = Syk(h) (Homo sapiens, UniProt P43405); experiment: Syk(h) kinase assay
Description: as §1, §2
In a final reaction volume of 25 μl, Syk (h) (5-10 mU) is incubated with 50 mM Tris pH 7.5, 0.1 mM EGTA, 0.1 mM NaVanadate, 0.1% β-mercaptoethanol, 0.1 mg/ml poly(Glu, Tyr) 4:1, 10 mM MgAcetate and [γ-^33P-ATP] (specific activity approx. 500 cpm/pmol, concentration as required). The reaction is initiated by the addition of Mg^2+ [γ-^33P-ATP]. After incubation for 40 minutes at room temperature, the reaction is stopped by the addition of 5 μl of a 3% phosphoric acid solution. 10 μl of the reaction is then spotted onto a Filtermat A and washed three times for 5 minutes in 75 mM phosphoric acid and once in methanol prior to drying and scintillation counting.

Sequence of CDK5/p35(h) (Q00535 whole entry): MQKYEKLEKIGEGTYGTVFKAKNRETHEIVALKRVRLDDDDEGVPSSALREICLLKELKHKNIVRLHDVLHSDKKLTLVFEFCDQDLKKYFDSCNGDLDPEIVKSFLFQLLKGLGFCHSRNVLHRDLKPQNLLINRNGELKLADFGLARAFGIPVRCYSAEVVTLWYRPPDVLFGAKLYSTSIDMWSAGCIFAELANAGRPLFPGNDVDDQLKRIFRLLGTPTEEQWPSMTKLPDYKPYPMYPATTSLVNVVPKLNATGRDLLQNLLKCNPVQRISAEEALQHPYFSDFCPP
Sequence of CDK5/p35(h) (Q15078 whole entry partner): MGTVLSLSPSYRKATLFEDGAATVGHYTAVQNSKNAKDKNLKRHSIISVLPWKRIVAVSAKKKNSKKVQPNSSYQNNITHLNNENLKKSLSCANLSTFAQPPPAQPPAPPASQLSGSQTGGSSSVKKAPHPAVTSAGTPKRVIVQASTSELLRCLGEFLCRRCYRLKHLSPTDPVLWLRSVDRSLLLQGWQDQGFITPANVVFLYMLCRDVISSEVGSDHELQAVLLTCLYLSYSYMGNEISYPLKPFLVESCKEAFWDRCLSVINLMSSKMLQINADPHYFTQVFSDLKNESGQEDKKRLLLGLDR
Sequence of Lyn(h) (P07948 2-512 limits assumed): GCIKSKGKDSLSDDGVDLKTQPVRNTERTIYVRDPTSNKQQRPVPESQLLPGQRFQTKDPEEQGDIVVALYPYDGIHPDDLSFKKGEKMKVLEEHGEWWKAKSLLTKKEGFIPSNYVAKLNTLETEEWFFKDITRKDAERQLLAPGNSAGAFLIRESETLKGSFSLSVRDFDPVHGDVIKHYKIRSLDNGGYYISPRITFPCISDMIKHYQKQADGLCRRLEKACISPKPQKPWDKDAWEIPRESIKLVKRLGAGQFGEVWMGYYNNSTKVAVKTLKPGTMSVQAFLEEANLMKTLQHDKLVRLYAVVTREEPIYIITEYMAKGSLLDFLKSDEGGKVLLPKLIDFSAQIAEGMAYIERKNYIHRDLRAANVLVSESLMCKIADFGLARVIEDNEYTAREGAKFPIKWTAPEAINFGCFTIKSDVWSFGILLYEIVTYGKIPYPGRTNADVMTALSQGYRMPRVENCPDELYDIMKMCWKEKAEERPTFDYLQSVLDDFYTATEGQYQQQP

Structure (SMILES) | Inhibitory activity (% of control), Lyn(h) (Lyn(h)) | Inhibitory activity (% of control), CDK5/p35(h) (CDK5/p35(h)) | Inhibitory activity (% of control), CDK6/cyclinD3(h) (CDK6/cyclinD3(h)) | Inhibitory activity (% of control), CHK2(h) (CHK2(h)) | Inhibitory activity (% of control), Fyn(h) (Fyn(h)) | Inhibitory activity (% of control), CaMKIV(h) (CaMKIV(h)) | Inhibitory activity (% of control), MAPKAP-K2(h) (MAPKAP-K2(h)) | Inhibitory activity (% of control), Syk(h) (Syk(h))
CC(C)Cc1nc(-c2ccc3[nH]nc(-c4ccc5cc(OCCN6CCCC6)ccc5c4)c3c2)n[nH]1 [CC002, 5-(5-Isobutyl-1H-[1,2,4]Triazol-3-yl)-3-[6-(2-Pyrrolidin-1-yl-Ethoxy)-Naphthalen-2-yl]-1H-Indazole] | 2 % of control | 16 % of control | 59 % of control | 1 % of control | 4 % of control | 60 % of control | 72 % of control | 14 % of control
O=C(NC1CCCC1)c1cccc(-c2n[nH]c3ccc(-c4nc[nH]n4)cc23)c1 [CC007, 3-(5-(1H-1,2,4-triazol-3-yl)(1H-indazol-3-yl))phenyl-N-cyclopentylcarboxamide, reference compound] | 61 % of control | 50 % of control | 87 % of control | 6 % of control | 66 % of control | 86 % of control | 86 % of control | 51 % of control
Fc1ccc(-c2n[nH]c3ccc(-c4n[nH]c(C5CCCC5)n4)cc23)cc1 [CC006, 5-(5-Cyclopentyl-1H-[1,2,4]triazol-3-yl)-3-(4-fluoro-phenyl)-1H-indazole, reference compound] | 23 % of control | 12 % of control | 63 % of control | 20 % of control | 65 % of control | 95 % of control | 96 % of control | 46 % of control
COc1ccc2cc(-c3n[nH]c4ccc(-c5n[nH]c(CN6CCOCC6)n5)cc34)ccc2c1 [CC001, 3-(6-Methoxynaphthalen-2-yl)-5-(5-Morpholin-4-Ylmethyl-1H-[1,2,4]Triazol-3-yl)-1H-Indazole] | 5 % of control | 7 % of control | 82 % of control | 2 % of control | 14 % of control | 82 % of control | 97 % of control | 26 % of control
CC(C)(C)Cc1nc(-c2ccc3[nH]nc(-c4ccc5cc(OCc6ccccn6)ccc5c4)c3c2)n[nH]1 [CC004, 5-[5-(2,2-Dimethyl-propyl)-1H-[1,2,4]triazol-3-yl]-3-[6-(pyridine-2-ylmethoxy)-naphthalen-2-yl]-1H-indazole] | 62 % of control | 10 % of control | 80 % of control | 7 % of control | 67 % of control | 80 % of control | 108 % of control | 47 % of control
CCN1CCC[C@H]1COc1ccc2cc(-c3n[nH]c4ccc(-c5nc(CC(C)(C)C)n[nH]5)cc34)ccc2c1 [CC005, 2-[((2s)-1-ethylpyrrolidin-2-yl)methoxy]-6-{5-[3-(2,2-Dimethylpropyl)(1H-1,2,4,-triazol-5-yl)](1H-indazol-3-yl)}naphthalene] | 2 % of control | 8 % of control | 29 % of control | 1 % of control | 4 % of control | 22 % of control | 56 % of control | 15 % of control
